Results published in patent US20240150377A1, “MODULATORS OF CYSTIC FIBROSIS TRANSMEMBRANE CONDUCTANCE REGULATOR” (VERTEX PHARMACEUTICALS INCORPORATED, priority 2020, published 2024).

Target: T1, CFTR (Homo sapiens, UniProt P13569, DEL508-508)
T1 construct: endogenous in cells; host or cells: primary human bronchial epithelial cells from CF subjects (F508del/MF-HBE), differentiated at air-liquid interface
Assay: HBE2 assay: Ussing chamber assay of CFTR-mediated short-circuit currents
Format: cell-based
Conditions: 3 μM corrector; F508del/MF-HBE cells; with 44 nM potentiator, 18-24 hours, 20% human serum
How it was run: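 Corrector activity read as CFTR-dependent ISC (μA/cm^2): peak forskolin current minus post-inhibitor steady state. Measured at 37 °C, voltage clamp at 0 mV, on F508del/MF-HBE epithelia grown >14 days air-liquid interface in Ussing chambers.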

T1 sequence (P13569 with tags, fused parts or gaps DEL508-508): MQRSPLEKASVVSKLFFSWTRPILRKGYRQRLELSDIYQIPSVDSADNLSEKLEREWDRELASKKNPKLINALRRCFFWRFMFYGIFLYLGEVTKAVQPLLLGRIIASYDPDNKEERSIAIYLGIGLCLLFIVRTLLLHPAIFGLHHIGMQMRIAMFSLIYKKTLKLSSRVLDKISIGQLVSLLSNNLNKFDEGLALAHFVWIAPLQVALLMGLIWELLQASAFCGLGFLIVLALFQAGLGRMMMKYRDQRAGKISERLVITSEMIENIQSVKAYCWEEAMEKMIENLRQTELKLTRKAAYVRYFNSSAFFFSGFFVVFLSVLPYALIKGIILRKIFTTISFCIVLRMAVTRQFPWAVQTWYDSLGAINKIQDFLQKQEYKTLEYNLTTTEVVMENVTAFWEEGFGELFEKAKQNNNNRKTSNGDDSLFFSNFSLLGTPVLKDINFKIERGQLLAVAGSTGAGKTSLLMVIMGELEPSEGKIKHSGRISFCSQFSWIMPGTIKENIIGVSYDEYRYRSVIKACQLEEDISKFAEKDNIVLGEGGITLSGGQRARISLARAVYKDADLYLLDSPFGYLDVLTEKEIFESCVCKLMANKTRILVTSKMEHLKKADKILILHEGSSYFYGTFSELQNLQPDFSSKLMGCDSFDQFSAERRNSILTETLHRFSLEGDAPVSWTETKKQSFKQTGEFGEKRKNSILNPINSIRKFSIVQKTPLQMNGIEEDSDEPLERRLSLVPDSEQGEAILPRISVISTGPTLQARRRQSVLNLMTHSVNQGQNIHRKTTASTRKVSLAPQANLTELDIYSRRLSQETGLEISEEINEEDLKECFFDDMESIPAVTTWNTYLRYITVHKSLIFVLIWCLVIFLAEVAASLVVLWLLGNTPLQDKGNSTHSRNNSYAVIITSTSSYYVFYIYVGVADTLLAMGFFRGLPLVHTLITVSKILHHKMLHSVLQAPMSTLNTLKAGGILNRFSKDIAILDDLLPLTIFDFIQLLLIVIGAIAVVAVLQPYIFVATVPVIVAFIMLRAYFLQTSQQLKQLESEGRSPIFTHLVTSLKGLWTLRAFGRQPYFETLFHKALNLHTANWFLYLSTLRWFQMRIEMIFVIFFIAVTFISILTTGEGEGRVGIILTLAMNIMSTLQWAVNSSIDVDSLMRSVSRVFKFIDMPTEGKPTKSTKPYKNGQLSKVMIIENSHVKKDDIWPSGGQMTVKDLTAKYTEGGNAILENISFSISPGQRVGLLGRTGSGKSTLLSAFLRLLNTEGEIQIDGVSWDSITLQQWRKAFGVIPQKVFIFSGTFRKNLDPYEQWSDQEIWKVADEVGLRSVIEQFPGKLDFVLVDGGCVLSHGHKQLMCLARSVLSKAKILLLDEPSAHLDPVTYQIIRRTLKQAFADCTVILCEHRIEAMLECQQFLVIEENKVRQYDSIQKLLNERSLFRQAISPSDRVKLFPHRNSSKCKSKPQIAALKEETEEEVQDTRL

Row | SMILES | HBE2 Activity at 3 μM (%)
1 | Cc1cccc(C)c1-c1cc2nc(n1)NS(=O)(=O)c1cccc(c1)C(=O)N(Cc1cncc(N(C)CC(C)(C)F)n1)[C@H](CCC(C)(C)C)CO2 [Compound 1818] | +++ (+++ is >60+)
2 | Cc1cccc(C)c1-c1cc2nc(n1)NS(=O)(=O)c1cccc(c1)C(=O)N(Cc1cnc3cc(C(C)C)n(C)c3n1)[C@H](CC(C)(C)F)CO2 [Compound 1819] | +++ (+++ is >60+)
3 | Cc1cccc(C)c1-c1cc2nc(n1)NS(=O)(=O)c1cccc(c1)C(=O)N(Cc1cnc3cc(C(C)C)n(C)c3n1)[C@H](CC1CC1)CO2 [Compound 1820] | +++ (+++ is >60+)
4 | Cc1cccc(C)c1-c1cc2nc(n1)NS(=O)(=O)c1cccc(c1)C(=O)N(Cc1cncc(N(C)CC(C)C)n1)[C@H](CC1CCCCC1)CO2 [Compound 1821] | +++ (+++ is >60+)
5 | Cc1cccc(C)c1-c1cc2nc(n1)NS(=O)(=O)c1cccc(c1)C(=O)N(Cc1cncc(N3CCCC[C@H]3C)n1)[C@H](CC1CCCCC1)CO2 [Compound 1822] | +++ (+++ is >60+)
6 | Cc1cccc(C)c1-c1cc2nc(n1)NS(=O)(=O)c1cccc(c1)C(=O)N(Cc1cncc(N3CC[C@H]3C)n1)[C@H](CC1CCCCC1)CO2 [Compound 1823] | +++ (+++ is >60+)
7 | Cc1cccc(C)c1-c1cc2nc(n1)NS(=O)(=O)c1cccc(c1)C(=O)N(Cc1cncc(N3CCCC3C(C)C)n1)[C@H](CC1CCCCC1)CO2 (stereo partly shown) [Compound 1824] | +++ (+++ is >60+)
8 | Cc1cccc(C)c1-c1cc2nc(n1)NS(=O)(=O)c1cccc(c1)C(=O)N(Cc1cncc(N(C)C(C)C)n1)[C@H](CC1CCCCC1)CO2 [Compound 1825] | +++ (+++ is >60+)
9 | Cc1cccc(C)c1-c1cc2nc(n1)NS(=O)(=O)c1cccc(c1)C(=O)N(Cc1cnc3cc(C(C)C)n(C)c3n1)[C@H](CCC(C)(C)C)CO2 [Compound 1826] | +++ (+++ is >60+)
10 | Cc1cccc(C)c1-c1cc2nc(n1)NS(=O)(=O)c1cccc(c1)C(=O)N(Cc1cnc3cc(C(C)C)n(C)c3n1)[C@H](CCC(C)C)CO2 [Compound 1827] | +++ (+++ is >60+)
11 | Cc1cccc(C)c1-c1cc2nc(n1)NS(=O)(=O)c1cccc(c1)C(=O)N(Cc1cnc3cc(C(C)C)n(C)c3n1)[C@H](CCC1CC1)CO2 [Compound 1828] | +++ (+++ is >60+)
12 | Cc1cccc(C)c1-c1cc2nc(n1)NS(=O)(=O)c1cccc(c1)C(=O)N(Cc1cnc3cc(C(C)C)n(C)c3n1)[C@H](CC1(C)CCC1)CO2 [Compound 1829] | +++ (+++ is >60+)
13 | Cc1cccc(C)c1-c1cc2nc(n1)NS(=O)(=O)c1cccc(c1)C(=O)N(Cc1cnc3cc(C(C)C)n(C)c3n1)[C@H](CC1CCC1)CO2 [Compound 1830] | +++ (+++ is >60+)
14 | Cc1cccc(C)c1-c1cc2nc(n1)NS(=O)(=O)c1cccc(c1)C(=O)N(Cc1cnc3cc(C(C)C)n(C)c3n1)[C@H](CC1(C)CC1)CO2 [Compound 1831] | +++ (+++ is >60+)
15 | Cc1cccc(C)c1-c1cc2nc(n1)NS(=O)(=O)c1cccc(n1)C(=O)N(Cc1cncc(N(C)C3CCC3)n1)[C@H](CC(C)(C)C)CO2 [Compound 1832] | +++ (+++ is >60+)
16 | Cc1cccc(C)c1-c1cc2nc(n1)NS(=O)(=O)c1cccc(c1)C(=O)N(Cc1cnc(C)c(N3CC[C@H]3C)n1)[C@H](CC(C)(C)C)CO2 [Compound 1833] | +++ (+++ is >60+)
17 | Cc1cccc(C)c1-c1cc2nc(n1)NS(=O)(=O)c1cccc(c1)C(=O)N(Cc1cnc3cc(C(C)C)n(C)c3n1)[C@H](CC(C)C)CO2 [Compound 1834] | +++ (+++ is >60+)
18 | Cc1cccc(C)c1-c1cc2nc(n1)NS(=O)(=O)c1cccc(c1)C(=O)N(Cc1cnc3cc(C(C)C)n(C)c3n1)[C@H](CC1(C(F)(F)F)CC1)CO2 [Compound 1835] | +++ (+++ is >60+)
19 | Cc1cccc(C)c1-c1cc2nc(n1)NS(=O)(=O)c1cccc(c1)C(=O)N(Cc1cnc3cc(C(C)C)n(C)c3n1)[C@H](CC(C)(C)C(F)(F)F)CO2 [Compound 1836] | +++ (+++ is >60+)
20 | Cc1cccc(C)c1-c1cc2nc(n1)NS(=O)(=O)c1cccc(c1)C(=O)N(Cc1cncc(N3CCC34CCC4)n1)[C@H](CCC(C)(C)C)CO2 [Compound 1837] | +++ (+++ is >60+)
21 | Cc1cccc(C)c1-c1cc2nc(n1)NS(=O)(=O)c1cccc(c1)C(=O)N(Cc1cncc(N3CCC[C@@H]4CC[C@@H]43)n1)[C@H](CC1CC1)CO2 [Compound 1839] | +++ (+++ is >60+)
22 | Cc1cccc(C)c1-c1cc2nc(n1)NS(=O)(=O)c1cccc(c1)C(=O)N(Cc1cncc(N3CCC[C@@H]4CC[C@@H]43)n1)[C@H](CC(C)(C)F)CO2 [Compound 1840] | +++ (+++ is >60+)
23 | Cc1cccc(C)c1-c1cc2nc(n1)NS(=O)(=O)c1cccc(c1)C(=O)N(Cc1cncc(C(C)C)n1)[C@H](CCC(C)(C)C)CO2 [Compound 1842] | +++ (+++ is >60+)

Row | SMILES | HBE2 Activity at 3 μM (%)
24 | Cc1cccc(C)c1-c1cc2nc(n1)NS(=O)(=O)c1cccc(c1)C(=O)N(Cc1cncc(N(C)C3CCC3)n1)[C@H](CC1CCCC1)CO2 [Compound 1844] | +++ (+++ is >60+)
25 | Cc1cccc(C)c1-c1cc2nc(n1)NS(=O)(=O)c1cccc(c1)C(=O)N(Cc1cncc(N(C)CC(C)C)n1)[C@H](CC1CCCC1)CO2 [Compound 1845] | +++ (+++ is >60+)
26 | Cc1cccc(C)c1-c1cc2nc(n1)NS(=O)(=O)c1cccc(c1)C(=O)N(Cc1cncc(N3CCC[C@H]3C(C)C)n1)[C@H](CC1CCCC1)CO2 [Compound 1846] | +++ (+++ is >60+)
27 | Cc1cccc(C)c1-c1cc2nc(n1)NS(=O)(=O)c1cccc(c1)C(=O)N(Cc1cncc(N3CCCC[C@H]3C)n1)[C@H](CC1CCCC1)CO2 [Compound 1847] | +++ (+++ is >60+)
28 | Cc1cccc(C)c1-c1cc2nc(n1)NS(=O)(=O)c1cccc(c1)C(=O)N(Cc1cncc(N(C)[C@H]3C[C@@H](F)C3)n1)[C@H](CCC(C)(C)C)CO2 [Compound 1848] | +++ (+++ is >60+)
29 | Cc1cccc(C)c1-c1cc2nc(n1)NS(=O)(=O)c1cccc(c1)C(=O)N(Cc1cncc(N(C)[C@H]3C[C@H](F)C3)n1)[C@H](CCC(C)(C)C)CO2 [Compound 1849] | +++ (+++ is >60+)
30 | CCN(c1cncc(CN2C(=O)c3cccc(c3)S(=O)(=O)Nc3nc(cc(-c4c(C)cccc4C)n3)OC[C@H]2CCC(C)(C)C)n1)C(C)C [Compound 1850] | +++ (+++ is >60+)
31 | COC[C@@H](C)N(C)c1cncc(CN2C(=O)c3cccc(c3)S(=O)(=O)Nc3nc(cc(-c4c(C)cccc4C)n3)OC[C@H]2CCC(C)(C)C)n1 [Compound 1851] | +++ (+++ is >60+)
32 | Cc1cccc(C)c1-c1cc2nc(n1)NS(=O)(=O)c1cccc(c1)C(=O)N(Cc1cncc(C3CCC3)n1)[C@H](CCC(C)(C)C)CO2 [Compound 1852] | +++ (+++ is >60+)
33 | Cc1cccc(C)c1-c1cc2nc(n1)NS(=O)(=O)c1cccc(c1)C(=O)N(Cc1cnc3ccn(C)c3n1)[C@H](CC(C)(C)C)CO2 [Compound 1853] | +++ (+++ is >60+)
34 | Cc1cccc(C)c1-c1cc2nc(n1)NS(=O)(=O)c1cccc(c1)C(=O)N(Cc1cncc(N3CC[C@H]4CC[C@H]43)n1)[C@H](CCC(C)(C)C)CO2 [Compound 1854] | +++ (+++ is >60+)
35 | COC[C@H]1CCCCN1c1cncc(CN2C(=O)c3cccc(c3)S(=O)(=O)Nc3nc(cc(-c4c(C)cccc4C)n3)OC[C@H]2CCC(C)(C)C)n1 [Compound 1857] | +++ (+++ is >60+)
36 | Cc1cccc(C)c1-c1cc2nc(n1)NS(=O)(=O)c1cccc(c1)C(=O)N(Cc1cnc3c(cc(C(C)C)n3C)n1)[C@H](CC(C)(C)C)CO2 [Compound 1858] | +++ (+++ is >60+)
37 | CCC(C)(C)C[C@@H]1COc2cc(-c3c(C)cccc3C)nc(n2)NS(=O)(=O)c2cccc(c2)C(=O)N1Cc1cncc(N2CC[C@H]2C)n1 [Compound 1860] | ++ (++ is 30-60%)
38 | CCC(C)(C)C[C@@H]1COc2cc(-c3c(C)cccc3C)nc(n2)NS(=O)(=O)c2cccc(c2)C(=O)N1Cc1cncc(N2CC[C@H]2C)n1 [Compound 1861] | +++ (+++ is >60+)
39 | CCC(C)(C)C[C@@H]1COc2cc(-c3c(C)cccc3C)nc(n2)NS(=O)(=O)c2cccc(c2)C(=O)N1Cc1cncc(N2CCCC[C@H]2C)n1 [Compound 1862] | ++ (++ is 30-60%)
40 | CCC(C)(C)C[C@@H]1COc2cc(-c3c(C)cccc3C)nc(n2)NS(=O)(=O)c2cccc(c2)C(=O)N1Cc1cncc(N2CCCC[C@H]2C)n1 [Compound 1863] | +++ (+++ is >60+)
41 | CC[C@H]1CCN1c1cncc(CN2C(=O)c3cccc(c3)S(=O)(=O)Nc3nc(cc(-c4c(C)cccc4C)n3)OC[C@H]2CCC(C)(C)C)n1 [Compound 1864] | +++ (+++ is >60+)
42 | Cc1cccc(C)c1-c1cc2nc(n1)NS(=O)(=O)c1cccc(c1)C(=O)N(Cc1cncc(N3CCC[C@H]3C3CC3)n1)[C@H](CC1CCCCC1)CO2 [Compound 1866] | +++ (+++ is >60+)
43 | COC[C@@H]1CCCN1c1cncc(CN2C(=O)c3cccc(c3)S(=O)(=O)Nc3nc(cc(-c4c(C)cccc4C)n3)OC[C@H]2CC2CCCCC2)n1 [Compound 1867] | +++ (+++ is >60+)
44 | Cc1cccc(C)c1-c1cc2nc(n1)NS(=O)(=O)c1cccc(c1)C(=O)N(Cc1cncc(N3CC[C@H]3COC(C)C)n1)[C@H](CCC(C)(C)C)CO2 [Compound 1868] | +++ (+++ is >60+)
45 | COCC1(CN(C)c2cncc(CN3C(=O)c4cccc(c4)S(=O)(=O)Nc4nc(cc(-c5c(C)cccc5C)n4)OC[C@H]3CCC(C)(C)C)n2)CC1 [Compound 1876] | +++ (+++ is >60+)
46 | Cc1cccc(C)c1-c1cc2nc(n1)NS(=O)(=O)c1cccc(c1)C(=O)N(Cc1cncc(C3CCOCC3)n1)[C@H](CCC(C)(C)C)CO2 [Compound 1879] | +++ (+++ is >60+)
